Test results reported in patent US20230339878A1, “SLC26A3 INHIBITORS AND USE THEREOF” (THE REGENTS OF THE UNIVERSITY OF CALIFORNIA, priority 2018, published 2023).
“Also recorded” adds a separate entry of the source. Like-named read-outs stand apart in the source and are kept apart here.

Assays:
murine slc26a3 = molecular target: T1, murine slc26a3 (Mus musculus, UniProt Q9WVC8); assay: slc26a3-mediated Cl-/I- exchange, YFP fluorescence quenching in FRT-YFP-slc26a3 cells; type: cell-based
T1 construct: host or cells: Fischer rat thyroid (FRT) cells expressing YFP, clonal line FRT-YFP-slc26a3
T1 sequence (Q9WVC8 1-757): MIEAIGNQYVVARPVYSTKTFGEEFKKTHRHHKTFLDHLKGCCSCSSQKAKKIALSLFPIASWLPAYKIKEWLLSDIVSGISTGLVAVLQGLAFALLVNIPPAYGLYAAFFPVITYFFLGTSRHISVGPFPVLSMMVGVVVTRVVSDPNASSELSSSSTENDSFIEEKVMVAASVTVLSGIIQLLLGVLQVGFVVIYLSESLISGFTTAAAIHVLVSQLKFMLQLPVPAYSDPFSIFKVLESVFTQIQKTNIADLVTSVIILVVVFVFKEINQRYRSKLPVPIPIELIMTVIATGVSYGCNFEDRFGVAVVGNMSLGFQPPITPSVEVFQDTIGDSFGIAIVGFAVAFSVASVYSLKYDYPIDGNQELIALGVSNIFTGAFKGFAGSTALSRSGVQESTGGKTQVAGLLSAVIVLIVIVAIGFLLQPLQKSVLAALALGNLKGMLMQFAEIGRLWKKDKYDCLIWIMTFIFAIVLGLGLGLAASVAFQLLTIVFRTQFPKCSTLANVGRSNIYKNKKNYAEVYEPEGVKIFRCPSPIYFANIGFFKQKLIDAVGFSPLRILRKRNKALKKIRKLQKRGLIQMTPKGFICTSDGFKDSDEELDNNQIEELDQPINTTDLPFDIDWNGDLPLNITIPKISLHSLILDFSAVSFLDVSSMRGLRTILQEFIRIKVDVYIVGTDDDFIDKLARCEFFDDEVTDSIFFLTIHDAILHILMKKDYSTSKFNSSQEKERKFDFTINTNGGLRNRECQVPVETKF
Description: High-throughput screening to identify slc26a3 inhibitors using FRT-YFP- slc26a3 cells was done with a semi-automated Beckman Coulter (Indianapolis, IN) platform with FLUOstar OMEGA plate readers (BMG Labtech, Cary, NC), essentially as described for discovery of pendrin inhibitors. Initial screening was done of ~50,000 drug-like synthetic small molecules (ChemDiv, San Diego, CA) at a concentration of 25 µM using a Cl^-/I^- exchange protocol to assay slc26a3 function. Following initial screening, compound analogs were purchased (ChemDiv, San Diego, CA) to generate structure-activity data.
For the screening, FRT-YFP-slc26a3 cells were plated in 96-well black-walled, clear-bottom tissue culture plates (Corning Life Sciences, Tewksbury, MA) at a density of 20,000 cells/well and cultured for 48 hours until confluent. For screening, cells were washed twice in PBS and incubated for 10 min in 100 µl PBS containing test compounds prior to assay of slc26a3 function. Assays were done using a FLUOstar OMEGA plate reader (BMG Labtech, Cary, NC) over 12 s with initial fluorescence recorded over 1 s prior to addition of 100 µl NaI-substituted PBS (137 mM NaCl replaced by 137 mM NaI) to drive Cl^-/I^- exchange. The initial rate of Cl^-/I^- exchange was determined from fluorescence intensity by single exponential regression. All plates contained wells with negative (1 % DMSO) and positive (350 µM niflumic acid) controls.
Screening was done using an FRT cell line stably expressing murine slc26a3 and a halide-sensitive yellow fluorescent protein (FRT-YFP- slc26a3 cells). FRT cells were used because of their low intrinsic permeability to anions that are transported by slc26a3, and because of their good adherence and rapid growth on uncoated plastic. As diagrammed in FIG. 1A, slc26a3-mediated transport was assayed from the kinetics of YFP fluorescence quenching in response to extracellular addition of I^- to drive Cl^-/I^- exchange; transport inhibition reduces the rate of fluorescence decrease.

[1] = Pharmacokinetics in mice, serum LC/MS; type: in vivo
Description: Pharmacokinetics of the Compound A1(DRAinh-A250) and analogs (DRAinh-A260 and DRAinh-A270) was determined in mice. After single dose intraperitoneal or oral administration (5 mg/kg for Compound A1 and DRAinh-A260, 10 mg/kg for DRAinh-A270), blood samples were collected via retro-orbital puncture at different time points and serum was separated by centrifugation. Compound concentrations were measured in serum using LC/MS. FIGS. 10A, 10B, 10C show the respective serum concentration of Compound A1 (FIG. 10A), DRAinh-A260 (FIG. 10B) and DRAinh-A270 (FIG. 10C) after single oral or intraperitoneal administration at zero time (n=3 mice per compound per administration route). Compound A1 had predicted therapeutic levels for at least 24 hours after single dose oral or intraperitoneal administration. […] (mean±SEM): 53.9±6.5% for Compound A1, 16.4±6.6% for DRAinh-A260, and 39.3±3.5% for DRAinh-A270.

[2] = test system: loperamide-treated wild-type mice; assay: Loperamide-induced constipation model in wild-type mice; type: in vivo; conditions: 5 mg/kg oral gavage 1 hour before loperamide, wild-type mice
Description: Female CD1 mice (age 8-10 weeks) were administered loperamide (0.3 mg/kg, intraperitoneally, Sigma-Aldrich) to produce constipation. Compound A1 (DRAinh-A250) (5 mg/kg, in saline containing vehicle (5% DMSO and 10% Kolliphor HS 15; Sigma-Aldrich)), tenapanor (5 mg/kg, in vehicle), both compounds (5 mg/kg each, in vehicle), or vehicle alone were administered by oral gavage 1 hour before loperamide. After loperamide injection, mice were placed individually in metabolic cages with ad libitum access to food and water. Stool samples were collected for 3 h, and total stool weight and number of fecal pellets were quantified. To measure stool water content, stool samples were dried at 80° C. for 24 h and water content was calculated as [wet weight-dry weight]/wet weight. Similar studies were done in cystic fibrosis (CF) mice (ΔF508 homozygous) lacking functional CFTR.
Constipation Model in MiceDRAinh-A260 and DRAinh-A270 were tested in a loperamide-induced constipation model in mice. Female CD1 mice (age 8-10 weeks) were administered loperamide (0.3 mg/kg, intraperitoneally, in 5% ethanol in PBS, 0.1 mg/mL final concentration) to produce constipation and vehicle in control mice. DRAinh-A260 (5 mg/kg, in saline with 5% DMSO and 10% Kolliphor HS 15) or DRAinh-A270 (1, 3 or 10 mg/kg, in PBS with 5% DMSO and 20% (2- hydroxypropyl)-β-cyclodextrin) or vehicle alone were administered by oral gavage 1 hour before loperamide (FIG. 11A). After loperamide injection, mice were placed individually in metabolic cages with free access to food and water. Stool samples were collected for 3 hours, and total stool weight and number of fecal pellets were quantified. To measure stool water content, stool samples were dried at 80° C. for 24 hours and water content was calculated as [wet weight-dry weight]/wet weight.

[3] = representative Class A compounds, Table 3, read-out: IC50

| SMILES | IC50 (murine slc26a3; [3]) [µM] | further results |
| --- | --- | --- |
| Cc1c(CC(=O)O)c(=O)oc2c(C)c(OCc3ccc(Cl)c(Cl)c3)ccc12 [Compound A7] |  | IC50 (murine slc26a3; selected class A analogs, Table 1, Cl-/I- exchange, read-out: IC50): 1.8 µM |
| Cc1c(CC(=O)O)c(=O)oc2c(C)c(OCc3cc(C(F)(F)F)cc(C(F)(F)F)c3)ccc12 [Compound A263] | 15 |  |
| Cc1c(CC(=O)O)c(=O)oc2c(C)c(OCc3ccccc3I)ccc12 [Compound A269] | 4.5 |  |
| CCCCCCOc1ccc2c(C)c(CC(=O)O)c(=O)oc2c1C [Compound A278] | 1.5 |  |
| Cc1c(CC(=O)O)c(=O)oc2c(C)c(OC3CCCC3)ccc12 [Compound A279] | 4.5 |  |
| Cc1c(CC(=O)O)c(=O)oc2c(C)c(OCC3CCC3)ccc12 [Compound A280] | 3.4 |  |
| Cc1c(CC(=O)O)c(=O)oc2c(C)c(OCC3CCCC3)ccc12 [Compound A281] | 1.8 |  |
| Cc1c(CC(=O)O)c(=O)oc2c(C)c(OCc3ccc(C(F)(F)F)o3)ccc12 [Compound A286] | 0.3 |  |
| O=C(O)c1cccnc1Nc1cccc(C(F)(F)F)c1 [niflumic acid, reference compound] |  | inhibition of slc26a3, positive control (murine slc26a3; 350 µM): strongly inhibited; IC50 (murine slc26a3; read-out: IC50 for inhibition of slc26a3-mediated Cl-/I- exchange): ~60 µM |

More lines, in order of falling IC50 (murine slc26a3; [3]), values ahead:

| IC50 (murine slc26a3; [3]) [µM] | SMILES | further results |
| --- | --- | --- |
| 0.5 | Cc1c(CC(=O)O)c(=O)oc2c(C)c(OCc3cccc([N+](=O)[O-])c3)ccc12 [Compound A253] |  |
| 0.1 | Cc1c(CC(=O)O)c(=O)oc2c(C)c(OCc3cc(C(F)(F)F)ccc3F)ccc12 [Compound A266] |  |
| 0.07 | Cc1c(CC(=O)O)c(=O)oc2c(C)c(OCc3cccc(C4CC4)c3)ccc12 [Compound A261] |  |
| 0.025 | Cc1c(CC(=O)O)c(=O)oc2c(C)c(OCc3cccc(C(F)(F)F)c3)ccc12 [DRAinh-A260] | oral bioavailability ([1]; 5 mg/kg (A1, A260) or 10 mg/kg (A270), mice): 16%; serum level time course ([1]; 5 mg/kg single dose oral or intraperitoneal): high serum levels initially; also recorded: almost complete disappearance of compound from serum at 16 hours; bioavailability ([1]; mouse, serum, po, 5 mg/kg (A1, A260) or 10 mg/kg (A270), mice, n=3, read-out: oral bioavailability (mean±SEM)): 16.4 ± 6.6%; three-hour stool weight, number of pellets and stool water content [2]: improving stool weight, pellet number and water content; also recorded: improves 3-hour stool weight, pellet number and water content |
